# In patent US20220096650A1 (Glaxosmithkline Intellectual Property Development Limited, priority 2019, published 2022):
# System: CD4 and CD8 T cells in PBMC
# Experiment: PBMC T cell activation assay (anti-CD3/anti-CD28 stimulation), activation markers by flow cytometry
# Format: cell-based, human
# Conditions: 24 and 72 hrs, 30, 3 and 0.3 μg/mL
# From the text: T cells can be activated through the engagement of the T cell receptor (TCR) and co-stimulatory molecules expressed on the cell surface. […] Furthermore, upon activation, T cells produce cytokines such as IFNγ and IL-4. The effect of BCMA ADC on IFNγ and IL-4 productions in stimulated T cells was also studied. These experiments can provide data on the effect of BCMA ADC on T cells activation and function. In addition, proliferation of human CD4+ and CD8+ T cells upon stimulation in the presence of BCMA ADC was also evaluated. Human blood was obtained from the blood donor procurement program at GlaxoSmithKline. Peripheral blood mononuclear cells (PBMCs) were isolated from human whole blood by Ficoll density gradient centrifugation (GE Healthcare). Anti-human CD3 antibody (eBioscience, catalog #16-0037-85, clone OKT3) diluted with coating buffer (Biolegend, catalog #421701) was coated on 96 well flat-bottom plate overnight.
# In this study, BCMA ADC treatment and PBMC activation occurred concurrently and the effects were monitored at 24 and 72 hrs. […] Immunofluorescence analysis was performed on a FACS CANTO II flow cytometer (BD Biosciences) and analyzed with DIVA software (BD Biosciences). Flow cytometry was used to monitor the percentage of CD4 or CD8 cells that express a given marker, and the mean fluorescence intensity (MFI) of this maker in CD4 or CD8 cells. […]
substance,measurement,value
GSK2857916,effect on anti-CD3/anti-CD28 stimulated CD4 and CD8 T cell activation,minimal effect
